Results on eleven molecules are retold here after patent US7977489B2, “Benzylthiazolone inhibitors of estrogen-related receptors (ERR)” (Exelixis, Inc., priority 2004, dated 2011).

SMILES strings stand for the structures.

This assay deals with T1, ERRα (Homo sapiens, UniProt P11474).
T1 construct: expressed in transfected cells; host or cells: CV-1 (African green monkey kidney) cells, transient transfection with CMX-GAL4-ERRα
T1 sequence (P11474 174-423): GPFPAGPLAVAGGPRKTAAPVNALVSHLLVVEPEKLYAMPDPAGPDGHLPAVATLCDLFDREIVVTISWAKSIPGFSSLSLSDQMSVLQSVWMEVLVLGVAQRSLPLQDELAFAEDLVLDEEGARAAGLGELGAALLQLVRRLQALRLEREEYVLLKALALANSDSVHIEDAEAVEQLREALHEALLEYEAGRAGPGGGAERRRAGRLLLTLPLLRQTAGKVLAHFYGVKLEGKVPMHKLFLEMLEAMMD
Put plainly: GAL4-ERRα co-transfection assay (luciferase reporter, CV-1 cells). Format: cell-based. Conditions: for Emax: CV-1, average percent inhibition of ERRα activity relative to control 3-[4-(2,4-Bis-trifluoromethyl-benzyloxy)-3-methoxy-phenyl]-2-cyano-N-(5-trifluoromethyl-[1,3,4]thiadiazol-2-yl)-acrylamide; for IC50: average IC50 for inverse agonist activity in the GAL4-ERRα assay, CV-1 cells. How it is done:
Compound activity was also determined in a cell based assay using a GAL4-ERRα chimera to identify active compounds.
CMX-GAL4-ERRα was constructed by cloning nucleotides encoding amino acids 174-423 of ERRα (see GenBank sequence XM048286) into the vector pCMX-GAL4 (Perlmann et al., 1993, Genes & Development 7:1411-1422) comprising nucleotides encoding for amino acids 1-147 of the GAL4 DNA binding domain.
The TK-MH100×4-Luc (GAL4UAS-TK-Luciferase) reporter constructs were constructed by insertion of four copies of the Gal4 UAS (Kang et al. 1993, J. Biol. Chem. 268:9629-9635) into the Hind III site of TK-Luc. The parental plasmid TK-Luc was prepared by insertion of the Herpes simplex virus thymidine kinase gene promoter (−105 to +51) obtained from the plasmid pBLCAT2 by digestion with HindIII and XhoI (described in Luckow et al., 1987, Nuc. Acid. Res. 15:5490) into the plasmid MTV-LUC described by Hollenberg and Evans, 1988, Cell 55:899-906) after removal of MTV-LTR promoter sequence from MTV-LUC via digestion with HindIII and XhoI. Correct cloning was confirmed by restriction digestion and or sequencing.
Assays were performed using CV-1 (African Green Monkey Kidney Cells) (ATCC) cells at 70 percent confluency in T175 flasks grown with media containing 10% charcoal/Dextran-treated fetal bovine serum. Cells were transiently transfected with a DNA mixture containing 12 μg of CMX-GAL4-ERRα (comprising the ligand binding domain), […] of TK-MH100×4-Luc, and 2 μg of CMX-βGal using the transfection reagent FuGENE6 (Roche Molecular Biochemicals, Indianapolis, Ind.) following recommended protocols and instructions provided by the manufacturer. Following incubation with transfection reagents for 5 hours at 37° C., cells were washed, removed from the flasks with 1× Trypsin-EDTA solution (Sigma-Aldrich, Inc. St. Louis, Mo., and then resuspended in media containing 5% charcoal/Dextran-treated fetal bovine serum to give a final concentration of 1.1×10^5 cells/ml.
Assay plates were prepared by dispensing approximately 5 μl of each compound into a well of a 384 well plate to achieve a final compound concentration of approximately 10 μM after addition of cells. Cells were added to assay plates (45 μl) via the use of a Multiprop dispenser (MTX Labs, Inc., Vienna, Va.). The assay plates containing both compounds and screening cells were incubated for approximately 20 hours at 37° C. and 5% CO2 in a tissue culture incubator.
After incubation of the transfected cells with compounds, Lysis buffer (1% Triton X-100, 10% Glycerol, 5 mM DTT, 1 mM EGTA, 25 mM Tricine) and Luciferin assay buffer (0.73 mM ATP, 22.3 mM Tricine, 0.11 mM EDTA, 33.3 mM DTT, 0.2M MgSO4, 11 mM Luciferin, 6.1 mM Coenzyme A, 0.01 mM HEPES) were prepared. Media was removed from the plates and lysis buffer and luciferin assay buffer mixed in a 1:1 ratio and then 30 μl was added to each well (384-well plate). Plates were read on the Northstar (Northstar Technologies, Inc., Acton, Mass.) and data was analyzed using ActivityBase (ID Business Solutions, Ltd., Guildford, Surrey, UK). Luciferase values were normalized with β-galactosidase values using the pCMX-βGal expression plasmid, to normalize for transfection efficiency as described previously (Willy et al., 1995, Gene & Development, 9:1033-1045).
No reporter-driven luciferase activity was observed without ERR transfection, indicating the ERR-dependency of the compounds.
The following table provides in vitro ERRα activity data of representative compounds described in the Examples. Average IC50 values for inverse agonist activity in the GAL4-ERRα assay are provided as follows: V: less than 0.5 μM; W: 0.5 μM-1 μM; X: 1 μM to 2 μM and Y: 2 μM to 5 μM. Average percent inhibition with respect to ERRα activity relative to a control (3-[4-(2,4-Bis-trifluoromethyl-benzyloxy)-3-methoxy-phenyl]-2-cyano-N-(5-trifluoromethyl-[1,3,4]thiadiazol-2-yl)-acrylamide) is provided as follows. […]
In general terms: Reporter assays use an easily measured gene product as a stand-in for the process of interest.

By Emax is commonly meant the size of the effect at its maximum, as opposed to the concentration needed. One may read the IC50 as the concentration needed to halve the response being measured. A higher IC50 goes with lower potency. As for `CCCCCN1CCN(C2=NC(=O)C(=Cc3ccc(OCc4ccc(C(F)(F)F)cc4C(F)(F)F)c(OC)c3)S2)CC1` [5-[1-[4-(2,4-Bis-trifluoromethyl-benzyloxy)-3-methoxy-phenyl]-methylidene]-2-(4-pentyl-piperazin-1-yl)-thiazol-4-one], the Emax is 80 to 100% and the IC50 was 2000 to 5000 nM.

In turn, `COc1cc(C=C2SC(N3CCCC(c4nc5cc(C)ccc5[nH]4)C3)=NC2=O)ccc1OCc1ccc(C(F)(F)F)cc1C(F)(F)F` (stereo not shown) [5-[1-[4-(2,4-Bis-trifluoromethyl-benzyloxy)-3-methoxy-phenyl]-methylidene]-2-[3-(5-methyl-1H-benzoimidazol-2-yl)-piperidin-1-yl]-thiazol-4-one] gave an Emax of 80 to 100% and a 50% inhibitory concentration (IC50) of 1000 to 2000 nM.

`COc1cc(C=C2SC(N3CC(C)OC(C)C3)=NC2=O)ccc1OCc1ccc(C(F)(F)F)cc1C(F)(F)F` (stereo not shown) [5-[1-[4-(2,4-Bis-trifluoromethyl-benzyloxy)-3-methoxy-phenyl]-methylidene]-2-(2,6-dimethyl-morpholin-4-yl)-thiazol-4-one]: the maximum response (Emax) fell in the range of 100 to 120% and the IC50 lay in the range of 1000 to 2000 nM.

As to `COc1cc(C=C2SC(N3CCN(Cc4ccc(Cl)cc4)CC3)=NC2=O)ccc1OCc1ccc(C(F)(F)F)cc1C(F)(F)F` [5-[1-[4-(2,4-Bis-trifluoromethyl-benzyloxy)-3-methoxy-phenyl]-methylidene]-2-[4-(4-chloro-benzyl)-piperazin-1-yl]-thiazol-4-one], the Emax fell in the range of 60 to 80% and the half-inhibitory concentration (IC50) was in the range of 2000 to 5000 nM.

`COc1cc(C=C2SC(N3CCN(S(C)(=O)=O)CC3)=NC2=O)ccc1OCc1ccc(C(F)(F)F)cc1C(F)(F)F` [Example 29, 5-[1-[4-(2,4-Bis-trifluoromethyl-benzyloxy)-3-methoxy-phenyl]-methylidene]-2-(4-methanesulfonyl-piperazin-1-yl)-thiazol-4-one] had an Emax of 100 to 120% and an IC50 of under 500 nM.

In the case of `COc1cc(C=C2SC(N3CCSCC3)=NC2=O)ccc1OCc1ccc(C(F)(F)F)cc1C(F)(F)F` [Example 22, 5-[1-[4-(2,4-Bis-trifluoromethyl-benzyloxy)-3-methoxy-phenyl]-methylidene]-2-thiomorpholin-4-yl-thiazol-4-one], the Emax is 100 to 120% and the IC50 fell in the range of 500 to 1000 nM.

The molecule `COc1cc(C=C2SC(N3CCNCC3)=NC2=O)ccc1OCc1ccc(C(F)(F)F)cc1C(F)(F)F` [Example 23, 5-[1-[4-(2,4-Bis-trifluoromethyl-benzyloxy)-3-methoxy-phenyl]-methylidene]-2-piperazin-1-yl-thiazol-4-one] registered an Emax of 100 to 120% and a 50% inhibitory concentration (IC50) of under 500 nM.

`COc1cc(C=C2SC(N3CCCC3c3ccccn3)=NC2=O)ccc1OCc1ccc(C(F)(F)F)cc1C(F)(F)F` (stereo not shown) [5-[1-[4-(2,4-Bis-trifluoromethyl-benzyloxy)-3-methoxy-phenyl]-methylidene]-2-(2-pyridin-2-yl-pyrrolidin-1-yl)-thiazol-4-one] came in with an Emax of 100 to 120% and an IC50 of under 500 nM.

Turning to `COc1cc(C=C2SC(N3CCN(C)CC3)=NC2=O)ccc1OCc1ccc(C(F)(F)F)cc1C(F)(F)F` [Example 18, 5-[1-[4-(2,4-Bis-trifluoromethyl-benzyloxy)-3-methoxy-phenyl]-methylidene]-2-(4-methyl-piperazin-1-yl)-thiazol-4-one], the Emax was in the range of 100 to 120% and the IC50 was under 500 nM.

Turning to `COc1cc(C=C2SC(N3CCOCC3)=NC2=O)ccc1OCc1ccc(C(F)(F)F)cc1C(F)(F)F` [Example 19, 5-[1-[4-(2,4-Bis-trifluoromethyl-benzyloxy)-3-methoxy-phenyl]-methylidene]-2-morpholin-4-yl-thiazol-4-one], the Emax was 80 to 100% and the IC50 was 500 to 1000 nM.

In the case of `COc1cc(C=C2SC(N3CCN(CC4CCN(C)CC4)CC3)=NC2=O)ccc1OCc1ccc(C(F)(F)F)cc1C(F)(F)F` [5-[1-[4-(2,4-Bis-trifluoromethyl-benzyloxy)-3-methoxy-phenyl]-methylidene]-2-[4-(1-methyl-piperidin-4-ylmethyl)-piperazin-1-yl]-thiazol-4-one], the Emax was 80 to 100% and the 50% inhibitory concentration (IC50) was in the range of 500 to 1000 nM.
